Here are results for 26 compounds from patent US20100120762A1, “Triazine derivatives as inhibitors of phosphodiesterases” (WYETH, priority 2008, published 2010).

In one assay the target is T1, PDE2A (NM002599) (Homo sapiens, UniProt O00408).
T1 construct: made in house; host or cells: baculovirus / SF21 insect cells
Kind of assay: Inhibition of recombinant PDE2A (expressed in baculovirus/SF21-cells). Type of assay: biochemical. How it is done:
PDE2A (NM002599) was cloned and the gene was inserted in the baculovirus and the enzyme-protein expressed in SF21-cells. The enzyme was isolated from these cells by harvesting the cells by an centrifugation at 200 g to collect the cells. The cells were resuspended in 50 mM Tris-HCl/5 mM MgCl2 buffer (pH=7.4) (Sigma, Deisenhofen, Germany; Merck, Darmstadt, Germany) and lysed by a sonication of the cells (three times for 15 seconds, Labsonic U, Fa. Braun, Degersheim, Switzerland, level “high”). The membrane fraction of PDE2A was obtained by a centrifugation at 48 000 g for 1 h, resuspended in buffer and stored at −70° C.
PDE2A activity was determined in a one step procedure in microtiterplates. The reaction mixture of 100 μl contained 50 mM Tris-HCl/5 mM MgCl2 buffer (pH=7.4) (Sigma, Deisenhofen, Germany; Merck, Darmstadt, Germany), 0.5 μM [3H]-cAMP (Amersham, Buckinghamshire, UK), 1000 nM cGMP and the enzyme. Non-specific enzyme activity was tested in the absence of cGMP. The reaction was initiated by addition of the substrate solution and was carried out at 37° C. for 30 minutes. Enzymatic activity then was stopped by addition of 25 μl SPA-beads (Amersham-Pharmacia). One hour later the mixture was measured in a liquid scintillation counter for microtiterplates (Microbeta Trilux). For pipetting of the incubation mixture the robot Biomek (Fa. Beckman) was routinely used.
The optimal amount of enzyme in the assay has been determined and optimised for each enzyme preparation separately before using the enzyme in compound testing. For determination of IC50 values the Hill-plot, 2-parameter-model, was used.

Another assay addresses T2, PDE10A1 (AB 020593) (Homo sapiens, UniProt Q9Y233).
T2 construct: made in house; host or cells: baculovirus / SF21 insect cells (gene synthesized by Entelechon GmbH)
Nature of the assay: Inhibition of recombinant PDE10A (baculovirus/SF21 system). Format: biochemical. The method, then:
The DNA of PDE10A1 (AB 020593, 2340 bp) was synthesized and cloned into the vector pCR4.TOPO (Entelechon GmbH, Regensburg, Germany). The gene was than inserted into a baculovirus vector, ligated with the baculovirus DNA. The enzyme-protein was expressed in SF21-cells. The enzyme was isolated from these cells by harvesting the cells by an centrifugation at 500 g to collect the cells.
The cells were resuspended in 50 mM Tris-HCl/1 mM EDTA/250 mM Sucrose buffer, pH=7.4 (Sigma, Deisenhofen, Germany; Merck, Darmstadt, Germany) and lysed by sonification of the cells (three times for 15 seconds, Labsonic U, Fa. Braun, Degersheim, Switzerland, level “high”). The cytosolic PDE10A was obtained by a centrifugation at 48,000 g for 1 h in the supernatant and stored at −70° C.
PDE activity was determined in a one step procedure in microtiter plates. The reaction mixture of 100 μl contained 50 mM Tris-HCl/5 mM MgCl2 buffer (pH=7.4, Sigma, Deisenhofen, Germany; Merck, Darmstadt, Germany) 0.1 μM [3H]-cAMP (Amersham, Buckinghamshire, UK) and the enzyme. Non-specific enzyme activity was determined without the enzyme. The reaction was initiated by addition of the substrate solution and was carried out at 37° C. for 30 minutes. Enzymatic activity then was stopped by addition of 25 μl Ysi-SPA-beads (Amersham-Pharmacia). One h later the mixture was measured in a liquid scintillation counter for microtiter plates (Microbeta Trilux). The Biomek 2000 (Beckman) was used routinely for pipetting of the incubation mixture. The optimal amount of enzyme in the assay has been determined and optimized for each enzyme preparation separately before using the enzyme in compound testing. For determination of IC50 values the Hill-plot, 2-parameter-model, was used.

[1] abbreviates: recombinant PDE2A, 0.5 μM [3H]-cAMP, 1000 nM cGMP, 37° C., 30 minutes, SPA, read-out: PDE2A IC50.
[2] abbreviates: recombinant cytosolic PDE10A, 0.1 μM [3H]-cAMP, 37° C., 30 minutes, SPA, read-out: PDE10A IC50.

Where two headings read alike, the source gives them in different places. Bounds are passed on as bounds.

T2 sequence (Q9Y233 other isoform, or with tags, fused parts or gaps): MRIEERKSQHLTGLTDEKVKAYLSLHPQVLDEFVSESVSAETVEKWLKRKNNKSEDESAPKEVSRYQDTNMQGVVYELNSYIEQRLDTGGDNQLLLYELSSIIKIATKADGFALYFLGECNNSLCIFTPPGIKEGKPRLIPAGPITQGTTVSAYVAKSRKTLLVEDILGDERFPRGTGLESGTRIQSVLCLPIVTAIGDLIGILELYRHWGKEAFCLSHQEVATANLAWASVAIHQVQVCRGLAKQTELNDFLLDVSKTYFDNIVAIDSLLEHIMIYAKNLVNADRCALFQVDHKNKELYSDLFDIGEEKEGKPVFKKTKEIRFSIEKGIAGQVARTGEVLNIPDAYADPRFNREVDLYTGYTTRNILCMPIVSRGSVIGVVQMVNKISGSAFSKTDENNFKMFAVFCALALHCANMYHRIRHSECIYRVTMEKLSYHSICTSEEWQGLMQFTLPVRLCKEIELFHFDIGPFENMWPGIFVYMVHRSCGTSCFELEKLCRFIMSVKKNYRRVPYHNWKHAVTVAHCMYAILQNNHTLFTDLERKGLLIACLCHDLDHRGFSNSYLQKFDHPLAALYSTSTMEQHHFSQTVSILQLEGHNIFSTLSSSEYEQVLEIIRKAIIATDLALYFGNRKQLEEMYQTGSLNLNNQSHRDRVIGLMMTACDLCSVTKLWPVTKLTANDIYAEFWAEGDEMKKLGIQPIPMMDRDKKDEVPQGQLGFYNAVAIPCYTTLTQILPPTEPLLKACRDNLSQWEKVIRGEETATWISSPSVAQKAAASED
T1 sequence (O00408 whole entry): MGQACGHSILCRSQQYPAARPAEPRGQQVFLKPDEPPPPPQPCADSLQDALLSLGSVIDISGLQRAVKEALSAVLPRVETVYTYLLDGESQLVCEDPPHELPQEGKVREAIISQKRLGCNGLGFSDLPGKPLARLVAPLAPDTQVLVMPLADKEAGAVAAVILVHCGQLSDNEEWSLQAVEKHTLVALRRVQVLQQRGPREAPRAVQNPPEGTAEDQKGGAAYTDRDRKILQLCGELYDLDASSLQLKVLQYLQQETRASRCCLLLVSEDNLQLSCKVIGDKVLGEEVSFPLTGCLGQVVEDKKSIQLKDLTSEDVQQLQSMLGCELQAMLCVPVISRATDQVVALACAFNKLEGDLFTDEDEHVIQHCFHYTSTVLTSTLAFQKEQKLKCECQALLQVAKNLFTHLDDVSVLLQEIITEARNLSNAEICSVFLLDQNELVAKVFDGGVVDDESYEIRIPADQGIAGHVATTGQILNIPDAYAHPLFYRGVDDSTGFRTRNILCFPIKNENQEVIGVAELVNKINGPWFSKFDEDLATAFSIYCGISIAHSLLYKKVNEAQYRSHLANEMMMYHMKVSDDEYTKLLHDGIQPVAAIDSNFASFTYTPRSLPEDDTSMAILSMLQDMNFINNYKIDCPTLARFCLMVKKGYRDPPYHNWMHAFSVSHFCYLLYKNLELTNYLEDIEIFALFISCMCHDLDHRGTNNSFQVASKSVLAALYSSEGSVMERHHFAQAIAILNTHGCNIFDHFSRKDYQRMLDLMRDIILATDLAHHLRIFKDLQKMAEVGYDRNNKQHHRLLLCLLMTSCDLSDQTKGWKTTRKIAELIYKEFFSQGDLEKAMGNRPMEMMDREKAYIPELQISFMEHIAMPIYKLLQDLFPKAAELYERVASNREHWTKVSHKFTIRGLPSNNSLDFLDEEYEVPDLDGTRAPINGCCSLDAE

`COc1ccc2nnc3c(C)nc(-c4cc(Cl)ccc4C(F)(F)F)n3c2n1` [Example 99, 9-[5-chloro-2-(trifluoromethyl)phenyl]-2-methoxy-7-methylimidazo[5,1-c]pyrido[2,3-e][1,2,4]triazine]: the IC50 (in general, the concentration that gives 50% inhibition) came out at 79.6 nM on PDE2A (NM002599) (setting [1]) and 732 nM at PDE10A1 (AB 020593) (setting [2]).
Taken in the same sequence, the figures for `CCOc1cccc(-c2nc(C)c3nnc4ccc(OC)nc4n23)c1` [Example 36, 9-(3-ethoxyphenyl)-2-methoxy-7-methylimidazo[5,1-c]pyrido[2,3-e][1,2,4]triazine] were 148 nM and 303 nM.
The like results for `COc1ccc2nnc3c(C)nc(-c4ccc(F)nc4C)n3c2n1` [Example 66, 9-(6-fluoro-2-methylpyridin-3-yl)-2-methoxy-7-methylimidazo[5,1-c]pyrido[2,3-e][1,2,4]triazine] were, in that order, 49 nM and 225 nM.
The like results for `COc1ccc2nnc3c(C)nc(-c4cc(F)cc(OC(C)C)c4)n3c2n1` [Example 22, 9-[3-fluoro-5-(1-methylethoxy)phenyl]-2-methoxy-7-methylimidazo[5,1-c]pyrido[2,3-e][1,2,4]triazine] were, in that order, over 1000 nM and over 1000 nM.
In the case of `COc1ccc2nnc3c(C)nc(-c4sc(C)nc4C)n3c2n1` [Example 54, 9-(2,4-dimethyl-1,3-thiazol-5-yl)-2-methoxy-7-methylimidazo[5,1-c]pyrido[2,3-e][1,2,4]triazine], the IC50 is 23 nM at PDE2A (NM002599) (setting [1]) and 64.5 nM on PDE10A1 (AB 020593) (setting [2]).
The like results for `COc1ccc2nnc3c(C)nc(-c4ccccc4C(F)(F)F)n3c2n1` [Example 102, 9-[2-(trifluoromethyl)phenyl]-2-methoxy-7-methylimidazo[5,1-c]pyrido[2,3-e][1,2,4]triazine] were, in that order, 48.6 nM and 96.8 nM.
Taken in the same sequence, the figures for `CCOc1cccc(-c2nc(C)c3nnc4ccc(OC)nc4n23)c1F` [Example 38, 9-(3-ethoxy-2-fluorophenyl)-2-methoxy-7-methylimidazo[5,1-c]pyrido[2,3-e][1,2,4]triazine] were 243 nM and 617 nM.
Turning to “9-[2-fluoro-5-(1-methylethoxy)phenyl]-2-methoxy-7-methylimidazo[5,1-c]pyrido[2,3-e][1,2,4]triazine [Example 20]”, the results for the half-inhibitory concentration (IC50) on PDE2A (NM002599) (setting [1]) and at PDE10A1 (AB 020593) (setting [2]) were 102 nM and 2430 nM, respectively.
Taken in the same sequence, the figures for `COc1ccc2nnc3c(C)nc(-c4ccoc4)n3c2n1` [Example 78, 9-furan-3-yl-2-methoxy-7-methylimidazo[5,1-c]pyrido[2,3-e][1,2,4]triazine] were 1390 nM and 482 nM.
Consider `COc1ccc2nnc3c(C)nc(-c4ccc5[nH]ccc5c4)n3c2n1` [Example 81, 9-(1H-indol-5-yl)-2-methoxy-7-methylimidazo[5,1-c]pyrido[2,3-e][1,2,4]triazine], for which the IC50 turned out to be 186 nM at PDE2A (NM002599) and 62.6 nM at PDE10A1 (AB 020593).
Consider `COc1ccc2nnc3c(C)nc(-c4cc(Cl)cnc4OC)n3c2n1` [Example 41, 9-(5-chloro-2-methoxypyridin-3-yl)-2-methoxy-7-methylimidazo[5,1-c]pyrido[2,3-e][1,2,4]triazine], for which the concentration for half-maximal inhibition (IC50) at PDE2A (NM002599) (setting [1]) stood at 54.3 nM; at PDE10A1 (AB 020593) (setting [2]), 291 nM.
The like results for “1-(2-Fluoro-5-trifluoromethyl-phenyl)-8-methoxy-3-methyl-imidazo[5,1-c]pyrido[2,3-e][1,2,4]triazine [Example 110]” were, in that order, 52.2 nM and 341 nM.
For `Cc1nc(-c2ccccc2Cl)n2c1nnc1ccc(O)nc12` [Example 117, 1-(2-Chloro-phenyl)-8-hydroxy-3-methyl-imidazo[5,1-c]pyrido[2,3-e][1,2,4]triazine], the half-maximal inhibitory concentration (IC50) on PDE2A (NM002599) (setting [1]) was 3.25 nM; on PDE10A1 (AB 020593) (setting [2]), 27.7 nM.
Taken in the same sequence, the figures for “1-(2-Ethoxy-5-methyl-phenyl)-8-methoxy-3-methyl-imidazo[5,1-c]pyrido[2,3-e][1,2,4]triazine [Example 104]” were 162 nM and 871 nM.
The like results for “1-(2-Chloro-3-methyl-3H-imidazol-4-yl)-8-methoxy-3-methyl-imidazo[5,1-c]pyrido[2,3-e][1,2,4]triazine [Example 107]” were, in that order, 358 nM and 600 nM.
The like results for `COc1ccc2nnc3c(C)nc(-c4cccc(OC)c4Cl)n3c2n1` [Example 39, 9-(2-chloro-3-methoxyphenyl)-2-methoxy-7-methylimidazo[5,1-c]pyrido[2,3-e][1,2,4]triazine] were, in that order, 111 nM and 115 nM.
Take `COc1ccc2nnc3c(C)nc(-c4cc(Cl)cc(Cl)c4Cl)n3c2n1` [Example 85, 2-methoxy-7-methyl-9-(2,3,5-trichlorophenyl)imidazo[5,1-c]pyrido[2,3-e][1,2,4]triazine]: the figures for the 50% inhibitory concentration (IC50) at PDE2A (NM002599) (setting [1]) and on PDE10A1 (AB 020593) (setting [2]) were 34.5 nM and 145 nM, respectively.
The like results for `COc1ccc2nnc3c(C)nc(-c4cccnc4F)n3c2n1` [Example 53, 9-(2-fluoropyridin-3-yl)-2-methoxy-7-methylimidazo[5,1-c]pyrido[2,3-e][1,2,4]triazine] were, in that order, 29.6 nM and 147 nM.
Taken in the same sequence, the figures for `COc1ccc2nnc3c(C)nc(-c4ccc(Cl)c(C(N)=O)c4)n3c2n1` [Example 83, 2-chloro-5-(2-methoxy-7-methylimidazo[5,1-c]pyrido[2,3-e][1,2,4]triazin-9-yl)benzamide] were 639 nM and 233 nM.
In the case of `COc1ccc2nnc3c(C)nc(-c4ccnc(C)c4)n3c2n1` [Example 34, 2-methoxy-7-methyl-9-(2-methylpyridin-4-yl)imidazo[5,1-c]pyrido[2,3-e][1,2,4]triazine], the IC50 at PDE2A (NM002599) (setting [1]) worked out at 421 nM; at PDE10A1 (AB 020593) (setting [2]), 270 nM.
Take `COc1ccc2nnc3c(C)nc(-c4cccnc4OC(C)C)n3c2n1` [Example 42, 2-methoxy-7-methyl-9-[2-(1-methylethoxy)pyridin-3-yl]imidazo[5,1-c]pyrido[2,3-e][1,2,4]triazine]: the half-maximal inhibitory concentration (IC50) was 751 nM on PDE2A (NM002599) (setting [1]) and under 5000 nM on PDE10A1 (AB 020593) (setting [2]).
Taken in the same sequence, the figures for `COc1ccc2nnc3c(C)nc(-c4cc(Cl)ccc4C)n3c2n1` [Example 60, 9-(5-chloro-2-methylphenyl)-2-methoxy-7-methylimidazo[5,1-c]pyrido[2,3-e][1,2,4]triazine] were 8 nM and 106 nM.
Taken in the same sequence, the figures for `COc1ccnc2c1nnc1c(C)nc(-c3ccncc3C)n12` [Example 114, 4-methoxy-7-methyl-9-(3-methylpyridin-4-yl)imidazo[5,1-c]pyrido[2,3-e][1,2,4]triazine] were 2060 nM and 10.1 nM.
Taken in the same sequence, the figures for `COc1ccc2nnc3c(C)nc(-c4cc(Cl)cc(Cl)c4)n3c2n1` [Example 97, 9-(3,5-dichlorophenyl)-2-methoxy-7-methylimidazo[5,1-c]pyrido[2,3-e][1,2,4]triazine] were 460 nM and 329 nM.
In the case of `COc1ccc2nnc3c(C)nc(-c4cccc(OC)c4OC)n3c2n1` [Example 37, 9-(2,3-dimethoxyphenyl)-2-methoxy-7-methylimidazo[5,1-c]pyrido[2,3-e][1,2,4]triazine], the IC50 on PDE2A (NM002599) (setting [1]) is 274 nM; at PDE10A1 (AB 020593) (setting [2]), 146 nM.
With `COc1cc(-c2nc(C)c3nnc4ccc(OC)nc4n23)cc(C(F)(F)F)c1` [Example 31, 2-methoxy-9-[3-methoxy-5-(trifluoromethyl)phenyl]-7-methylimidazo[5,1-c]pyrido[2,3-e][1,2,4]triazine], the half-inhibitory concentration (IC50) at PDE2A (NM002599) (setting [1]) and on PDE10A1 (AB 020593) (setting [2]) was over 1000 nM throughout.
